# Several values for one entry are separate records, joined by “and”; a condition that tells them apart may be missing. Equal values may be shown once.
# Experiments:
# blood clot = assay: Thrombolysis assay (clot lysis); parameters: species or system human; settings: sample solution in DMSO, 3 h at 37 °C, ABTS positive control, triplicate
# Description: The thrombolytic assay was performedaccording tomethodologyin the literature. A blood sample (3 mL) was collected from a healthy human donor, and 500 µL was transferred to pre-weighed, clean Eppendorf tubes. The tubes containing the blood wereweighed again andincubatedfor 1 h at 37 °C to induce clot formation. The serum was then discarded, and the tube containing theclot was weighed. An amount of 40 µL of sample solution in DMSO was added to the clot.The tubes were again incubated for 3 h at 37 °C, and the lysis resultswere observed. ABTS was used as a positivecontrol, while DMSO was used as a negative control in this assay. The experiment was performed in triplicate, and the lysis percentage was calculated using the formula below: % Age clot lysis =Initial clot weight−Final clot weight ×100/Initial clot weight
# [1] = test system: A549 lung cancer cell line; assay: MTT assay, cell viability; type: cell-based, human; settings: A549, 48 h, mean ± SD in triplicate
# Description: The A549 cell line was treated with synthesized compounds in a final concentration of DMSO (dimethyl sulfoxide) of less than 1%.
# The cytotoxic therapeutic potential of synthesized structural hybrids was evaluated usinga standard MTT (3-(4,5-dimethylthiazol-2-yl)-2,5-diphenyltetrazolium bromide) assay. The cells of theA549 cell line were grown, overnight, in a microculture of 96-well plates. […] Following this, 150 μL of control DMSO was added to formazan crystals.The percentage of cell viability was determined viaquantified absorbance in a microplate readerat 490 nm wavelength.
# Hemolysis assay = type: cell-based; settings: human, red blood cells (washed RBC pellet); read-out: Percentage Hemolysis ± SD
# Description: A fresh blood sample (5 mL) from a healthy donor was collected in an EDTA tube. The blood was transferred to microcentrifuge tubes and centrifugedfor 5 min at 1000 rpm to obtain the red blood cells (RBCs). The supernatant was then discarded, and the RBCpellet was washed three times with phosphate-buffered saline (PBS). The RBC pellet was collected after washing and 20µL of sample solution in DMSO was added. The tubes were incubated at 37 °C for 60 min. Having been removed from the incubator, the tubes were recentrifuged at 13,000 rpm for 5 min. The supernatant was collected and diluted with chilled PBS solution. Absorbance was recordedat 517 nm. […] The experiment wasconducted in triplicate, and the RBC lysis percentage was calculated using this formula [40]: % Age hemolysis =Absorbance of sample−Absorbance of negative control ×100/Absorbance of positive control
melting point,IC50 ([1]; Homo sapiens),SMILES,Percentage Thrombolysis ± SD (blood clot),IC50 [1],hemolysis at 60 min (Hemolysis assay),Percentage Cell viability A549 (Lung Cancer) ± SD [1]
–,–,"CCn1c(=NN=c2sc3cc(S(=O)(=O)O)ccc3n2CC)sc2cc(S(=O)(=O)O)ccc21 [ABTS, reference compound]",86%,–,–,–
–,–,"N.N.[Cl][Pt][Cl] [Cisplatin, cisplatin, reference compound]",–,3.88 ± 0.76 µM,–,–
212 to 214 °C,–,O=C(CSc1nnc(-c2cc3ccccc3o2)o1)Nc1ccccc1 [Compound 5a],56.8% and 56.8 ± 0.081%,–,3.7 ± 0.008%,64.1 ± 1.72%
181 to 182 °C,–,O=C(CSc1nnc(-c2cc3ccccc3o2)o1)N1CCOCC1 [Compound 5b],50.7% and 50.7 ± 0.081%,–,22.12 ± 0.008%,45.99 ± 4.22%
176 to 178 °C,6.3 ± 0.7 µM,COc1ccccc1NC(=O)CSc1nnc(-c2cc3ccccc3o2)o1 [Compound 5d],53.5% and 53.5 ± 0.081%,–,5.02 ± 0.008%,27.49 ± 1.90%
154 to 156 °C,17.9 ± 0.46 µM,CCOc1ccc(NC(=O)CSc2nnc(-c3cc4ccccc4o3)o2)cc1 [Compound 5e],52.4% and 52.4 ± 0.081%,–,0.5 ± 0.008%,34.47 ± 2.19%
96 to 97 °C,–,CCN(CC)C(=O)CSc1nnc(-c2cc3ccccc3o2)o1 [Compound 5g],48.3% and 48.3 ± 0.081%,–,4.86 ± 0.047%,41.45 ± 4.10%
173 to 175 °C,–,O=C(CSc1nnc(-c2cc3ccccc3o2)n1-c1ccccc1)N1CCOCC1 [Compound 7b],52.5% and 52.5 ± 0.081%,–,0.1 ± 0.004%,57.62 ± 4.94%
226 to 227 °C,–,Cc1ccc(NC(=O)CSc2nnc(-c3cc4ccccc4o3)n2-c2ccccc2)c(C)c1 [Compound 7f],61.4% and 61.4 ± 0.081%,–,15.7 ± 0.081%,99.1 ± 5.04%
229 to 230 °C,19.8 ± 0.54 µM,O=C(CSc1nnc(-c2cc3ccccc3o2)n1-c1ccccc1)Nc1ccc(Cl)cc1 [Compound 7g],49.06% and 49.06 ± 0.047%,–,23.4 ± 0.081%,36.26 ± 0.41%
217 to 219 °C,10.9 ± 0.94 µM,O=C(CSc1nnc(-c2cc3ccccc3o2)n1-c1ccccc1)Nc1ccc(Cl)cc1Cl [Compound 7h],48.1% and 48.1 ± 0.081%,–,14.8 ± 0.081%,29.29 ± 3.98%
–,8.54 ± 0.84 µM,"C[C@@H](Oc1cc(-c2cnn(C3CCNCC3)c2)cnc1N)c1c(Cl)ccc(F)c1Cl [Crizotinib, crizotinib, reference compound]",–,–,–,–

# Reference: publication PMC8838991, “Exploring the Synergistic Anticancer Potential of Benzofuran–Oxadiazoles and Triazoles: Improved Ultrasound- and Microwave-Assisted Synthesis, Molecular Docking, Hemolytic, Thrombolytic and Anticancer Evaluation of Furan-Based Molecules” (Molecules, 2022)
